Test results from US8952150B2, “Prostaglandin transporter inhibitors and uses thereof” (Albert Einstein College of Medicine of Yeshiva University, priority 2009, dated 2015).

Columns and labels:
rat PGT = rat PGT (Rattus norvegicus (Rat), UniProt Q00910); assay: [3H]PGE2 uptake inhibition in MDCK cells stably transfected with rat PGT (percent inhibition and IC50); type: cell-based; settings: for Inh (% of Ctl) 0.1 μM: 0.1 μM compound; for Inh (% of Ctl) 0.1 μM / Inh (% of Ctl) 0.5 μM / Inh (% of Ctl) 5 μM / Inh (% of Ctl) 10 μM / Inh (% of Ctl) 1 μM / Inh (% of Ctl) 2.5 μM: inhibition of [3H]PGE2 uptake; for Inh (% of Ctl) 0.5 μM: 0.5 μM compound; for Inh (% of Ctl) 5 μM: 5 μM compound; for Inh (% of Ctl) 10 μM: 10 μM compound; for IC50: [3H]PGE2 uptake, MDCK cells stably transfected with rat PGT; for Inh (% of Ctl) 1 μM: 1 μM compound; for Inh (% of Ctl) 2.5 μM: 2.5 μM compound
Procedure, shortened: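 Rat PGT-transfected MDCK cells, on day 4 after seeding, took up [3H]PGE2 in Waymouth buffer at room temperature, with compound (EtOH stock diluted in buffer) added immediately before tracer. Intracellular radioactivity counted after lysis; percent inhibition versus vehicle, IC50 by fitting y=m1−m1*(m0/(m2+m0)).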

full-thickness wounds = assay: Wound healing: topical application to full-thickness wounds on the back of mice; type: in vivo; settings: 5 mm full-thickness wounds
Experimental: FIG. 1A-1B. Prostaglandin transporter (PGT) inhibitors accelerate wound healing. […] B. Averaged wound areas of 4 mice, each of them had 2 wounds and received topically applied vehicle Veh1 (2% DMSO+2% cremophor in water) on one wound and T26A on the other. On the wounds of a separate group of 4 mice, vehicle Veh2 (2% EtOH) was applied to one wound and 200 μM PGE2 was applied to the other.
Studies were conducted using compound T26A (Table 1). Two full-thickness wounds with diameter of 5 mm were created on the back of mice symmetrically under the shoulder blades. 50 μL vehicle (2% DMSO+2% cremophor in water) was applied to one wound (FIG. 1A, top panel), and that of 2 mM T26A was applied to the other (FIG. 1A, bottom panel), immediately after surgery and every other day afterwards. […] On the wounds of a separate group of 4 mice, vehicle Veh2 (2% EtOH, yellow) was applied to one wound and 200 μM PGE2 (green) was applied to the other. Results were statistically significant (p<0.05, T26A vs. vehicle).

Compound	Inh (% of Ctl) 0.5 μM (rat PGT)	Inh (% of Ctl) 5 μM (rat PGT)	Inh (% of Ctl) 10 μM (rat PGT)	Inh (% of Ctl) 1 μM (rat PGT)	also measured
COC(=O)Cc1ccc(Nc2nc(NCCOCCOCCNC(=O)c3ccccc3)nc(Nc3ccc(C(=O)NCc4ccccc4)cc3)n2)cc1 [compound 122]	38.1 % of Ctl				Inh (% of Ctl) 0.1 μM (rat PGT): 5.8 % of Ctl
O=C(NCCOCCOCCNc1nc(Nc2ccc(O)cc2)nc(Nc2ccc(C(=O)NCc3ccccc3)cc2)n1)c1ccccc1 [compound 22]	62.4 % of Ctl	88.1 % of Ctl	95.5 % of Ctl		IC50 (rat PGT): 42.7 nM
COCCOCCOCCNc1nc(NCCOCCOCCNC(=O)c2ccccc2)nc(Nc2ccc(O)cc2)n1 [compound 11]	11.4 % of Ctl	29.9 % of Ctl			
COC(=O)Cc1ccc(Nc2nc(NCCOCCOCCNC(=O)c3ccccc3)nc(Nc3ccccc3)n2)cc1 [compound 60]			34.5 % of Ctl	7.2 % of Ctl	
COC(=O)CCCCCCNc1nc(Nc2ccccc2)nc(Nc2ccc(O)cc2)n1 [compound 50]			15.1 % of Ctl	9.3 % of Ctl	
O=C(NCCOCCOCCNc1nc(Nc2ccc(O)cc2)nc(Nc2ccc(C(=O)NCc3cc(F)ccc3F)cc2)n1)c1ccccc1 [compound 127]	52.3 % of Ctl			70.2 % of Ctl	Inh (% of Ctl) 0.1 μM (rat PGT): 17.0 % of Ctl
O=C(NCCOCCOCCNc1nc(NCCO)nc(Nc2ccc(OCc3ccccc3)cc2)n1)c1ccccc1 [compound 6]	3.6 % of Ctl	11.7 % of Ctl			
COc1cccc(C(=O)NCCOCCOCCNc2nc(Nc3ccccc3)nc(Nc3ccc(O)cc3)n2)c1 [compound 37]			79.0 % of Ctl	32.4 % of Ctl	
O=C(NCCOCCOCCNc1nc(Nc2ccc(O)cc2)nc(Nc2ccc(C(=O)NCc3cccc(F)c3)cc2)n1)c1ccccc1 [compound 105]	64.6 % of Ctl	92.45 % of Ctl			Inh (% of Ctl) 0.1 μM (rat PGT): 67.9 % of Ctl; Inh (% of Ctl) 2.5 μM (rat PGT): 81 % of Ctl; IC50 (rat PGT): 47.5 nM
O=C(NCCOCCOCCNc1nc(Nc2ccc(O)cc2)nc(Nc2ccc(C(=O)NCc3ccc(Br)cc3)cc2)n1)c1ccccc1 [compound 109]	55.6 % of Ctl	85.1 % of Ctl			Inh (% of Ctl) 0.1 μM (rat PGT): 49.5 % of Ctl; Inh (% of Ctl) 2.5 μM (rat PGT): 59.8 % of Ctl
Nc1ccc(Nc2nc(NCCOCCOCCNC(=O)c3ccccc3)nc(Nc3ccc(O)cc3)n2)cc1 [compound 25]	12.9 % of Ctl	27.7 % of Ctl			
[N-]=[N+]=NCCOCCOCCNC(=O)c1ccc(Nc2nc(NCCOCCOCCNC(=O)c3ccccc3)nc(Nc3ccc(O)cc3)n2)cc1 [T26A, reference compound]	72.65 % of Ctl				IC50 (rat PGT): 378 nM; vascularization and blood flow in the wound (full-thickness wounds; 2 mM T26A applied topically): increased vascularization and blood flow in the wound; wound healing (wound area) (full-thickness wounds; 50 μL of 2 mM T26A topically immediately after surgery and every other day, 10 day period, vs vehicle (2% DMSO+2% cremophor in water), p<0.05 T26A vs. vehicle): accelerates wound healing
CN(c1ccc(O)cc1)c1nc(NCCOCCOCCNC(=O)c2ccccc2)nc(Nc2ccc(C(=O)NCc3ccccc3)cc2)n1 [compound 123]	36.6 % of Ctl				Inh (% of Ctl) 0.1 μM (rat PGT): 12.0 % of Ctl
O=C(NCCOCCOCCNc1nc(Nc2ccc(O)cc2)nc(Nc2ccc(C(=O)NCc3cccc(-c4ccccc4)c3)cc2)n1)c1ccccc1 [compound 90]	23.4 % of Ctl	72.7 % of Ctl			Inh (% of Ctl) 2.5 μM (rat PGT): 60.6 % of Ctl
O=C(O)CCCCCCNC(=O)c1ccc(Nc2nc(NCCOCCOCCNC(=O)c3ccccc3)nc(Nc3ccc(O)cc3)n2)cc1 [compound 48]			62.8 % of Ctl	14.2 % of Ctl	
O=C(NCCOCCOCCNc1nc(Nc2ccccc2)nc(Nc2ccc(-c3nnn[nH]3)cc2)n1)c1ccccc1 [compound 54]			52.2 % of Ctl	33.7 % of Ctl	
O=C(NCCOCCOCCNc1nc(Nc2ccccc2)nc(Nc2ccc(O)cc2)n1)c1cccnc1 [compound 33]			54.6 % of Ctl	13.2 % of Ctl	
O=C(NCCOCCNc1nc(Nc2ccc(O)cc2)nc(Nc2ccc(C(=O)NCc3ccccc3)cc2)n1)c1ccccc1 [compound 118]	90.7 % of Ctl				Inh (% of Ctl) 0.1 μM (rat PGT): 74.2 % of Ctl; IC50 (rat PGT): 20.9 nM
O=C(NCCOCCOCCNc1nc(Nc2ccccc2)nc(Nc2ccc(O)cc2)n1)c1cccs1 [compound 39]			86.2 % of Ctl	42.9 % of Ctl	
O=C(NCCOCCOCCNc1nc(Nc2ccccc2)nc(Nc2ccc(O)cc2)n1)c1ccc(F)cc1 [compound 30]			78.25 % of Ctl	26.1 % of Ctl	
O=C(NCCOCCNc1nc(Nc2ccccc2)nc(Nc2ccc(O)cc2)n1)c1ccccc1 [compound 59]			75.8 % of Ctl	36.8 % of Ctl	IC50 (rat PGT): 2460 nM
O=C(NCCOCCOCCNc1nc(Nc2ccc(O)cc2)nc(Nc2ccc(C(=O)N[C@@H](C(=O)O)c3ccccc3)cc2)n1)c1ccccc1 [compound 79]	5.4 % of Ctl	54.9 % of Ctl			Inh (% of Ctl) 2.5 μM (rat PGT): 29.2 % of Ctl
